Measured values as given in PubChem BioAssay AID248 (DTP/NCI, 2004).
Where “and” joins values, the source holds several entries; their conditions need not be identical. Equal values may be shown once. Toxic doses and inconclusive results are not listed. Cut-off read from the data, not from the text of the source: active = T/C of 150% or more; inactive = T/C below 125%. Square brackets hold non-standard residues; d marks the D form. Peptide text beside a SMILES is read from it. ξ: configuration not given here. ξD = NC(CC(=O)O)C(=O)O

Test system: L1210 leukemia ip in BDF1 mice, survival T/C
Assay: NCI In Vivo Anticancer Drug Screen. Data for tumor model L1210 Leukemia (intraperitoneal) in B6D2F1 (BDF1) mice
Details: endpoint: mean survival time, higher = longer survival
Method in brief: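 Mice bearing the transplanted tumor received compound or vehicle. Survival of the treated group was divided by that of the vehicle-treated control group to give the ratio.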

[1] = dose: 100.0 mg/kg/injection, schedule: Q04DX003 (ip), vehicle: Klucel (hydroxypropylcellulose) (HPC)
[2] = dose: 200.0 mg/kg/injection, schedule: Q04DX003 (ip), vehicle: Klucel (hydroxypropylcellulose) (HPC)
[3] = dose: 400.0 mg/kg/injection, schedule: Q04DX003 (ip), vehicle: Klucel (hydroxypropylcellulose) (HPC)
[4] = dose: 100.0 mg/kg/injection, schedule: Q01DX001 (ip), vehicle: saline with Tween-80
[5] = dose: 200.0 mg/kg/injection, schedule: Q01DX001 (ip), vehicle: saline with Tween-80
[6] = dose: 400.0 mg/kg/injection, schedule: Q01DX001 (ip), vehicle: saline with Tween-80
[7] = dose: 100.0 mg/kg/injection, schedule: Q01DX009 (ip), vehicle: saline with Tween-80
[8] = dose: 200.0 mg/kg/injection, schedule: Q01DX009 (ip), vehicle: saline with Tween-80
[9] = dose: 400.0 mg/kg/injection, schedule: Q01DX009 (ip), vehicle: saline with Tween-80
[10] = dose: 200.0 mg/kg/injection, schedule: Q01DX001 (ip), vehicle: carboxymethylcellulose (CMC)
[11] = dose: 100.0 mg/kg/injection, schedule: Q01DX009 (ip), vehicle: other
[12] = dose: 100.0 mg/kg/injection, schedule: Q01DX001 (ip), vehicle: saline
[13] = dose: 200.0 mg/kg/injection, schedule: Q01DX001 (ip), vehicle: saline
[14] = dose: 400.0 mg/kg/injection, schedule: Q01DX001 (ip), vehicle: saline
[15] = dose: 50.0 mg/kg/injection, schedule: Q01DX009 (ip), vehicle: Klucel (hydroxypropylcellulose) (HPC)
[16] = dose: 100.0 mg/kg/injection, schedule: Q01DX009 (ip), vehicle: Klucel (hydroxypropylcellulose) (HPC)
[17] = dose: 200.0 mg/kg/injection, schedule: Q01DX009 (ip), vehicle: Klucel (hydroxypropylcellulose) (HPC)

Measured: T/C

O=C(Nc1cccc(C2=NCCN2)c1)c1ccc(C(=O)Nc2cccc(C3=NCCN3)c2)c([N+](=O)[O-])c1
inactive: dose: 1.25 mg/kg/injection, schedule: Q01DX Z (ip), vehicle: saline 93 % of control | dose: 2.5 mg/kg/injection, schedule: Q01DX Z (ip), vehicle: saline 90 % of control | dose: 5.0 mg/kg/injection, schedule: Q01DX Z (ip), vehicle: saline 86 % of control

O=C(OCC1OC(n2c(=O)[nH]c(=O)c3ncsc32)C(OC(=O)c2ccccc2)C1OC(=O)c1ccccc1)c1ccccc1 (configuration not stated)
inactive: dose: 100.0 mg/kg/injection, schedule: Q01DX005 (ip), vehicle: saline 95 % of control | dose: 200.0 mg/kg/injection, schedule: Q01DX005 (ip), vehicle: saline 101 % of control

CC(C)C(C=O)(CCN1CCCCC1)c1cccc2ccccc12 (configuration not stated)
inactive: dose: 25.0 mg/kg/injection, schedule: Q04DX002 (ip), vehicle: saline with Tween-80 98 % of control | dose: 50.0 mg/kg/injection, schedule: Q04DX002 (ip), vehicle: saline with Tween-80 98 % of control | dose: 100.0 mg/kg/injection, schedule: Q04DX002 (ip), vehicle: saline with Tween-80 88 % of control

O=C(/C=C/c1cccc2ccccc12)c1ccc(Cl)cc1
inactive: [1] 105 % of control | [2] 96 % of control | [3] 94 % of control

Cc1ccccc1C(O)c1ccccc1Cl (configuration not stated)
inactive: [4] 109 % of control | [5] 102 % of control | [6] 94 % of control

Cn1c(=O)n2n(c1=O)C1C=CC2C2C(Br)C(Br)C21 (configuration not stated)
inactive: [7] 97 % of control | dose: 100.0 mg/kg/injection, schedule: Q04DX003 (ip), vehicle: saline with Tween-80 102 % of control | [8] 101 % of control | dose: 200.0 mg/kg/injection, schedule: Q04DX003 (ip), vehicle: saline with Tween-80 94 % of control | [9] 103 % of control | dose: 400.0 mg/kg/injection, schedule: Q04DX003 (ip), vehicle: saline with Tween-80 105 % of control

CCCCN(CCCC)c1ccc(/C=C/c2ccnc3ccccc23)cc1
inactive: dose: 100.0 mg/kg/injection, schedule: Q01DX009 (ip), vehicle: carboxymethylcellulose (CMC) 101 % of control and 103 % of control | dose: 100.0 mg/kg/injection, schedule: Q04DX002 (ip), vehicle: carboxymethylcellulose (CMC) 102 % of control | dose: 100.0 mg/kg/injection, schedule: Q04DX003 (ip), vehicle: carboxymethylcellulose (CMC) 97 % of control | [10] 92 % of control | dose: 200.0 mg/kg/injection, schedule: Q01DX009 (ip), vehicle: carboxymethylcellulose (CMC) 101 % of control and 104 % of control | dose: 200.0 mg/kg/injection, schedule: Q04DX002 (ip), vehicle: carboxymethylcellulose (CMC) 108 % of control | dose: 200.0 mg/kg/injection, schedule: Q04DX003 (ip), vehicle: carboxymethylcellulose (CMC) 100 % of control | dose: 400.0 mg/kg/injection, schedule: Q01DX009 (ip), vehicle: carboxymethylcellulose (CMC) 101 % of control and 103 % of control | dose: 400.0 mg/kg/injection, schedule: Q04DX002 (ip), vehicle: carboxymethylcellulose (CMC) 102 % of control | dose: 400.0 mg/kg/injection, schedule: Q04DX003 (ip), vehicle: carboxymethylcellulose (CMC) 97 % of control | dose: 800.0 mg/kg/injection, schedule: Q01DX001 (ip), vehicle: carboxymethylcellulose (CMC) 92 % of control | dose: 1600.0 mg/kg/injection, schedule: Q01DX001 (ip), vehicle: carboxymethylcellulose (CMC) 88 % of control

Cc1c(Br)sc2ccccc12
inactive: dose: 100.0 mg/kg/injection, schedule: Q01DX001 (ip), vehicle: carboxymethylcellulose (CMC) 96 % of control | [10] 96 % of control | dose: 400.0 mg/kg/injection, schedule: Q01DX001 (ip), vehicle: carboxymethylcellulose (CMC) 107 % of control

Oc1ccc(O)c(CCCCCc2cc(O)ccc2O)c1
inactive: dose: 25.0 mg/kg/injection, schedule: Q01DX009 (ip), vehicle: other 106 % of control | dose: 50.0 mg/kg/injection, schedule: Q01DX009 (ip), vehicle: other 98 % of control | [4] 104 % of control | [11] 97 % of control | [5] 100 % of control | [6] 100 % of control

NCC(=O)NC(CC(=O)O)C(=O)O (configuration not stated) (H-Gly-[ξD]-OH)
inactive: [12] 97 % of control | [13] 104 % of control | [14] 97 % of control

[CH3][Pb]([CH3])([CH3])[O]C(=O)c1ccc([N+](=O)[O-])cc1
inactive: dose: 12.5 mg/kg/injection, schedule: Q04DX002 (ip), vehicle: Klucel (hydroxypropylcellulose) (HPC) 97 % of control

FC(F)(F)c1nc2nc(Cl)c(Cl)nc2n1CCCN1CCOCC1
inactive: [7] 117 % of control | [8] 107 % of control | [9] 103 % of control

CC(C)CCC(C)c1ccncc1 (configuration not stated)
inactive: [12] 103 % of control | [13] 97 % of control | [14] 100 % of control

CC1=C(C)C23OCC(CO2)CC3=C(C)C1=O
inactive: [4] 93 % of control | [5] 122 % of control | [6] 104 % of control

CCOc1c(Br)cc(Br)cc1/C=N/NS(=O)(=O)c1ccc(C)cc1
inactive: [15] 103 % of control | [16] 105 % of control | [1] 101 % of control | [2] 109 % of control | [3] 92 % of control

Cc1ccc(N2CCN(CC(O)c3ccccc3)CC2)cc1 (configuration not stated)
inactive: [15] 95 % of control | [16] 95 % of control | [17] 98 % of control

CC(=O)c1cccc([N+](=O)[O-])c1O
inactive: [12] 95 % of control | [13] 94 % of control | [14] 91 % of control

N#Cc1c(N)[n+]([O-])c2c([n+]1[O-])CCCC2
inactive: dose: 100.0 mg/kg/injection, schedule: Q04DX002 (ip), vehicle: Klucel (hydroxypropylcellulose) (HPC) 101 % of control | dose: 200.0 mg/kg/injection, schedule: Q04DX002 (ip), vehicle: Klucel (hydroxypropylcellulose) (HPC) 104 % of control | dose: 400.0 mg/kg/injection, schedule: Q04DX002 (ip), vehicle: Klucel (hydroxypropylcellulose) (HPC) 87 % of control

N#Cc1c(F)c(F)c(Oc2c(F)c(F)c(F)c(Oc3c(F)c(F)c(C#N)c(F)c3F)c2F)c(F)c1F
inactive: [11] 103 % of control | dose: 100.0 mg/kg/injection, schedule: Q04DX003 (ip), vehicle: other 100 % of control | dose: 200.0 mg/kg/injection, schedule: Q01DX009 (ip), vehicle: other 100 % of control | dose: 200.0 mg/kg/injection, schedule: Q04DX003 (ip), vehicle: other 97 % of control and 100 % of control | dose: 400.0 mg/kg/injection, schedule: Q04DX003 (ip), vehicle: other 86 % of control

O=C1C=CC(=O)C2C3C=CC(C3)C12 (configuration not stated)
inactive: dose: 25.0 mg/kg/injection, schedule: Q01DX009 (ip), vehicle: Klucel (hydroxypropylcellulose) (HPC) 102 % of control | [15] 98 % of control | [16] 94 % of control and 102 % of control

CCCCCCCCCCCCOC(=N)N1CCOCC1
inactive: dose: 11.1 mg/kg/injection, schedule: Q01DX Z (ip), vehicle: saline 102 % of control | dose: 16.6 mg/kg/injection, schedule: Q01DX Z (ip), vehicle: saline 102 % of control | dose: 25.0 mg/kg/injection, schedule: Q01DX Z (ip), vehicle: saline 98 % of control

Cc1ccc(Cl)c(NC(=O)Nc2cccc(F)c2)c1
inactive: [16] 94 % of control | [17] 87 % of control | dose: 400.0 mg/kg/injection, schedule: Q01DX009 (ip), vehicle: Klucel (hydroxypropylcellulose) (HPC) 89 % of control
